Measured values published in ChEMBL document CHEMBL1201862, “PubChem BioAssay data set” (2004).
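Dose response: 5 concentrations. Exposure: 48 h. Format: 96-well plates. Endpoint: linear interpolation; highest concentration if not reached. GI50 is the concentration that inhibits growth by half.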 The source made the active and inactive calls. Cut-off read from the data, not from the text of the source: active = GI50 up to about 1.1 µM and inactive = higher.

Tests used:
Assay in all cases: NCI tumour cell line growth inhibition, 48 h
SK-OV-3 = tested on: SK-OV-3
SF-268 = tested on: SF-268
MDA-MB-435 = tested on: MDA-MB-435
NCI-H226 = tested on: NCI-H226
HCT-15 = tested on: HCT-15
U-251 = tested on: U-251
NCI-H23 = tested on: NCI-H23
IGROV-1 = tested on: IGROV-1
UACC-257 = tested on: UACC-257
HCT-116 = tested on: HCT-116
RPMI-8226 = tested on: RPMI-8226
HT-29 = tested on: HT-29
NCI-H460 = tested on: NCI-H460
PC-3 = tested on: PC-3
TK-10 = tested on: TK-10
UACC-62 = tested on: UACC-62
HCC 2998 = tested on: HCC 2998
A549 = tested on: A549
T47D = tested on: T47D
NCI/ADR-RES = tested on: NCI/ADR-RES

| Structure (SMILES) | GI50 (SK-OV-3) | GI50 (SF-268) | GI50 (MDA-MB-435) | GI50 (NCI-H226) | GI50 (HCT-15) [µM] | GI50 (U-251) | GI50 (NCI-H23) | GI50 (IGROV-1) | GI50 (UACC-257) | GI50 (HCT-116) | GI50 (RPMI-8226) | GI50 (HT-29) | GI50 (NCI-H460) | GI50 (PC-3) | GI50 (TK-10) | GI50 (UACC-62) | GI50 (HCC 2998) | GI50 (A549) | GI50 (T47D) | GI50 (NCI/ADR-RES) |
| --- | --- | --- | --- | --- | --- | --- | --- | --- | --- | --- | --- | --- | --- | --- | --- | --- | --- | --- | --- | --- |
| CC(=O)OCc1nc(C#N)c(N)o1 | > 100 µM (inactive) | > 100 µM (inactive) | > 100 µM (inactive) | > 100 µM (inactive) | > 100 | > 100 µM (inactive) | > 100 µM (inactive) | > 100 µM (inactive) | > 100 µM (inactive) | > 100 µM (inactive) | > 100 µM (inactive) | > 100 µM (inactive) | > 100 µM (inactive) | > 100 µM (inactive) | > 100 µM (inactive) | > 100 µM (inactive) | > 100 µM (inactive) | – | – | – |
| OCC(O)C(O)C(C=NNc1ncnc2ccc(Br)cc12)=NNc1ncnc2ccc(Br)cc12 (stereo not drawn) | 1.85 µM (inactive) | 1.29 µM (inactive) | 3.38 µM (inactive) | 1.67 µM (inactive) | – | 1.75 µM (inactive) | – | 0.726 µM (active) | 3.1 µM (inactive) | 0.358 µM (active) | 1.19 µM (inactive) | 0.556 µM (active) | – | 4.35 µM (inactive) | 8.45 µM (inactive) | – | – | 2.88 µM (inactive) | 0.373 µM (active) | – |
| OCC1OC(NCCNCCNC2OC(CO)C(O)C(O)C2O)C(O)C(O)C1O (stereo not drawn) | > 100 µM (inactive) | > 100 µM (inactive) | – | > 100 µM (inactive) | > 100 | > 100 µM (inactive) | > 100 µM (inactive) | > 100 µM (inactive) | > 100 µM (inactive) | > 100 µM (inactive) | > 100 µM (inactive) | > 100 µM (inactive) | > 100 µM (inactive) | > 100 µM (inactive) | > 100 µM (inactive) | > 100 µM (inactive) | > 100 µM (inactive) | > 100 µM (inactive) | > 100 µM (inactive) | > 100 µM (inactive) |
| CC1(C)CC(=O)C(=CNC(=O)c2ccncc2)C(=O)C1 | > 100 µM (inactive) | > 100 µM (inactive) | > 100 µM (inactive) | > 100 µM (inactive) | > 100 | > 100 µM (inactive) | > 100 µM (inactive) | > 100 µM (inactive) | > 100 µM (inactive) | > 100 µM (inactive) | – | > 100 µM (inactive) | > 100 µM (inactive) | > 100 µM (inactive) | > 100 µM (inactive) | > 100 µM (inactive) | > 100 µM (inactive) | > 100 µM (inactive) | – | > 100 µM (inactive) |
